Experiments:
MDA-MB-231 cells [1] = experiment: in cellulo tubulin imaging, immunostaining of microtubule cytoskeleton; type: cell-based; conditions: 20 h; for effect on microtubule structure: 390 nm regimen (200 ms every 2 min)
Description: In order to investigate the influence of compound I.1 on microtubule structure in cellulo, immunostaining of the microtubule cytoskeleton in MDA-MB-231 cells was performed. Cells were treated with compound I.1 and then kept in dark conditions, or exposed to 390 nm light (200 ms every 2 min), or exposed to a rescue protocol with sequential pulses of 390 nm light (200 ms every 2 min) then immediately 505 nm (600 ms every 2 min). After 20 h of treatment cells were fixed, stained and subjected to confocal microscopy.
Briefly, prior to analysis, cells were washed with pre-warmed PBS then cell extraction buffer (80 mM piperazine-N,N′-bis(2-ethanesulfonic acid) [abbreviated PIPES], 1 mM MgCl2, 5 mM EGTA-K and 0.5% Triton X-100, at pH 6.8) was added to remove monomeric and dimeric tubulin subunits. After 30 s of extraction, cells were fixed for 10 min with 0.5% glutaraldehyde. Following glutaraldehyde quenching with 0.1% NaBH4 in PBS for 7 min, coverslips were blocked with PBS containing 0.2% BSA (bovine serum albumin). Immunostaining was performed using anti-α-tubulin antibody (ab18251) and the AlexaFluor 488 secondary antibody (A 11008), purchased from Abcam (Cambridge, UK) and Invitrogen (Darmstadt, Germany), respectively. Hoechst 33342 (bisbenzimide), purchased from Sigma-Aldrich (catalogue number B2261; Taufkirchen, Germany), was used at a concentration of 1 ug/ml for nuclear staining. Cells were mounted with PermaFluor™ mounting medium (Beckman Coulter) and analyzed with a Zeiss LSM 510 Meta confocal microscope (Jena, Germany). Acquired images were processed using the ImageJ program (National Institutes of Health) and representative images are collected in FIG. 7.

MDA-MB-231 cells [2] = experiment: nuclear fragmentation (subG1, Nicoletti), induction of apoptosis; type: cell-based
Description: Different cell types, including MDA-MB-231, Jurkat, HeLa and HepG2 cells, were treated with indicated concentrations of compound I.1 and exposed to a 390 nm toxic regime, a rescue regime with both 390 nm and 515 nm light, or kept in the dark. Following the treatment, cells were stained with PI and the percentage of cells containing a hypodiploid amount of DNA (subG1 phase of cell cycle), was determined. Briefly, prior to analysis, cells were harvested on ice and incubated in a hypotonic buffer [0.1% sodium citrate, 0.1% Triton X-100 and 50 μg/mL propidium iodide (PI)] for 30 min at 4° C. Following the PI staining cells were analysed by flow cytometry using FACSCalibur flow cytometer (Becton Dickinson, Heidelberg, Germany) and Cell Quest Pro Software (Becton Dickinson).

COc1ccc(N=Nc2cc(OC)c(OC)c(OC)c2)cc1O [I.1, 2-methoxy-5-((3,4,5-trimethoxyphenyl)diazenyl)phenol]
effect on microtubule structure (MDA-MB-231 cells [1]; 1.5 μM): degradation of the microtubule cytoskeleton | effect on microtubule structure (MDA-MB-231 cells [1]; 4 μM): complete microtubule breakdown plus fragmentation of the nuclei | nuclear fragmentation and microtubule destruction (MDA-MB-231 cells [1]; kept in the dark): not observed | effect of rescue protocol on signs of cytotoxic effects (MDA-MB-231 cells [1]; rescue: 390 nm (200 ms) then 505 nm (600 ms) every 2 min): dose-dependent reduction of the signs of cytotoxic effects | mean % subG1 phase (MDA-MB-231 cells [2]; 10 nM, 390 nm (350 ms every 5 min), 48 h): 3.6% | mean % subG1 phase (MDA-MB-231 cells [2]; 10 nM, Dark, 48 h): 6.7% | mean % subG1 phase (MDA-MB-231 cells [2]; 10 nM, MDA-MB-231, 390 nm only (150 ms pulse every 30 s), 48 h): 0.3% | mean % subG1 phase (MDA-MB-231 cells [2]; 10 nM, MDA-MB-231, rescue protocol 390 nm + 515 nm (500 ms), 48 h): 0.3% | mean % subG1 phase (MDA-MB-231 cells [2]; 100 nM, 390 nm (350 ms every 5 min), 48 h): 3.9% | mean % subG1 phase (MDA-MB-231 cells [2]; 100 nM, MDA-MB-231, 390 nm only (150 ms pulse every 30 s), 48 h): 0.3% | mean % subG1 phase (MDA-MB-231 cells [2]; 100 nM, MDA-MB-231, dark, 48 hours): 2.1% | mean % subG1 phase (MDA-MB-231 cells [2]; 100 nM, MDA-MB-231, rescue protocol 390 nm + 515 nm (500 ms), 48 h): 0.4% | mean % subG1 phase (MDA-MB-231 cells [2]; 100 nM, dark, 48 h): 6.0% | mean % subG1 phase (MDA-MB-231 cells [2]; 400 nM, 390 nm (350 ms every 5 min), 48 h): 4.2% | mean % subG1 phase (MDA-MB-231 cells [2]; 400 nM, MDA-MB-231, 390 nm only (150 ms pulse every 30 s), 48 h): 14.0% | mean % subG1 phase (MDA-MB-231 cells [2]; 400 nM, MDA-MB-231, rescue protocol 390 nm + 515 nm (500 ms), 48 h): 1.7% | mean % subG1 phase (MDA-MB-231 cells [2]; 400 nM, dark, 48 h): 3.3% | mean % subG1 phase (MDA-MB-231 cells [2]; 600 nM, 390 nm (350 ms every 5 min), 48 h): 16.8% | mean % subG1 phase (MDA-MB-231 cells [2]; 600 nM, MDA-MB-231, 390 nm only (150 ms pulse every 30 s), 48 h): 22.9% | mean % subG1 phase (MDA-MB-231 cells [2]; 600 nM, MDA-MB-231, rescue protocol 390 nm + 515 nm (500 ms), 48 h): 5.4% | mean % subG1 phase (MDA-MB-231 cells [2]; 600 nM, dark, 48 h): 3.9% | mean % subG1 phase (MDA-MB-231 cells [2]; 800 nM, 390 nm (350 ms every 5 min), 48 h): 32.1% | mean % subG1 phase (MDA-MB-231 cells [2]; 800 nM, Dark, 48 h): 3.0% | mean % subG1 phase (MDA-MB-231 cells [2]; 800 nM, MDA-MB-231, 390 nm only (150 ms pulse every 30 s), 48 h): 19.4% | mean % subG1 phase (MDA-MB-231 cells [2]; 800 nM, MDA-MB-231, rescue protocol 390 nm + 515 nm (500 ms), 48 h): 11.7% | mean % subG1 phase (MDA-MB-231 cells [2]; 1 μM, 390 nm (350 ms every 5 min), 48 h): 55.7% | mean % subG1 phase (MDA-MB-231 cells [2]; 1 μM, MDA-MB-231, 390 nm only (150 ms pulse every 30 s), 48 h): 22.5% | mean % subG1 phase (MDA-MB-231 cells [2]; 1 μM, MDA-MB-231, dark, 48 hours): 2.0% | mean % subG1 phase (MDA-MB-231 cells [2]; 1 μM, MDA-MB-231, rescue protocol 390 nm + 515 nm (500 ms), 48 h): 15.3% | mean % subG1 phase (MDA-MB-231 cells [2]; 1 μM, dark, 48 h): 3.1% | mean % subG1 phase (MDA-MB-231 cells [2]; 1.2 μM, 390 nm (350 ms every 5 min), 48 h): 56.6% | mean % subG1 phase (MDA-MB-231 cells [2]; 1.2 μM, DARK, 48 h): 3.6% | mean % subG1 phase (MDA-MB-231 cells [2]; 1.5 μM, 390 nm (350 ms every 5 min), 48 h): 76.1% | mean % subG1 phase (MDA-MB-231 cells [2]; 1.5 μM, DARK, 48 h): 3.3% | mean % subG1 phase (MDA-MB-231 cells [2]; 2 μM, MDA-MB-231, 390 nm only (150 ms pulse every 30 s), 48 h): 35.4% | mean % subG1 phase (MDA-MB-231 cells [2]; 2 μM, MDA-MB-231, rescue protocol 390 nm + 515 nm (500 ms), 48 h): 25.0% | mean % subG1 phase (MDA-MB-231 cells [2]; 3 μM, 390 nm (350 ms every 5 min), 48 h): 79.0% | mean % subG1 phase (MDA-MB-231 cells [2]; 3 μM, dark, 48 h): 6.0% | mean % subG1 phase (MDA-MB-231 cells [2]; 6 μM, 390 nm (350 ms every 5 min), 48 h): 83.5% | mean % subG1 phase (MDA-MB-231 cells [2]; 6 μM, DARK, 48 h): 3.9% | mean % subG1 phase (MDA-MB-231 cells [2]; 10 μM, MDA-MB-231, dark, 48 hours): 2.0% | mean % subG1 phase (MDA-MB-231 cells [2]; 15 μM, 390 nm (350 ms every 5 min), 48 h): 83.7% | mean % subG1 phase (MDA-MB-231 cells [2]; 15 μM, DARK, 48 h): 5.4% | mean % subG1 phase (MDA-MB-231 cells [2]; 50 μM, MDA-MB-231, dark, 48 hours): 4.5%
